Values after ≈ are worked out from the molar mass of the structure shown.
Legend:
Plasmodium falciparum = assay: microbe, parasite or virus in culture; type: functional, organism-based; conditions: FcB1/Columbia
Description: Antiplasmodial activity against chloroquine-resistant Plasmodium falciparum FcB1/Colombia infected in human A+ve erythrocytes assessed as inhibition of [G-3H]hypoxanthine uptake preincubated for 24 hrs prior to [G-3H]hypoxanthine addition measured after 18 hrs by liquid scintillation counting

Leishmania donovani = assay: Antileishmanial activity against Leishmania donovani MHOM/ET/L82/LV9 promastigotes after 3 days by MTT assay; type: functional, organism-based; conditions: MHOM/ET/L82/LV9, 72 h
[1] = system: Trypanosoma brucei brucei; assay: Antitrypanosomal activity against Trypanosoma brucei brucei; type: functional, organism-based
Vero = assay: Cytotoxicity against african green monkey Vero cells; type: ADME, cell-based; conditions: Chlorocebus sabaeus
[2] = Selectivity index, ratio of IC50 for african green monkey Vero cells to IC50 for chloroquine-resistant Plasmodium falciparum FcB1/Colombia; type: toxicity, cell-based; conditions: read-out: Ratio IC50

SMILES	IC50 (Plasmodium falciparum)	EC50 (Leishmania donovani)	EC50 [1]	IC50 (Vero)	selectivity ratio [2]
COc1cc2c(c(O)c1OC)c(=O)c1cccc(O)c1n2C	3 µg/mL (≈ 9.96 µM)	20.4 µg/mL (≈ 67.7 µM)	125 µg/mL (≈ 415 µM)	30.5 µg/mL (≈ 101 µM)	10
CC(=O)O[C@@H]1C[C@H]2C(C)(C)OC(=O)C=C[C@]2(C)[C@H]2CC[C@@]3(C)[C@H](c4ccoc4)OC(=O)[C@H]4O[C@]43[C@@]21C	9.3 µg/mL (≈ 18.7 µM)	45 µg/mL (≈ 90.3 µM)	> 125 µg/mL	> 50 µg/mL	
Cn1c2c(O)cccc2c(=O)c2c(O)cc3c(c21)C=CC(C)(C)O3	0.9 µg/mL (≈ 2.78 µM)	11.2 µg/mL (≈ 34.6 µM)	125 µg/mL (≈ 387 µM)	9.3 µg/mL (≈ 28.8 µM)	10
CC[C@@]1(O)C(=O)OCc2c1cc1n(c2=O)Cc2cc3ccccc3nc2-1 [CAMPTOTHECIN]				0.6 µg/mL (≈ 1.72 µM)	
NCCS[As](SCCN)c1ccc(Nc2nc(N)nc(N)n2)cc1 [CYMELARSEN]			1 µg/mL		
CC(C)=CCc1cc2ccc(=O)oc2cc1O [DEMETHYLSUBEROSIN]	16.7 µg/mL (≈ 72.5 µM)	120 µg/mL (≈ 521 µM)	> 125 µg/mL	> 50 µg/mL	
COc1cc2ccc(=O)oc2cc1O[C@@H]1O[C@H](CO[C@@H]2O[C@@H](C)[C@H](O)[C@@H](O)[C@H]2O)[C@@H](O)[C@H](O)[C@H]1O [HAPLOPEROSIDE]	> 100 µg/mL	> 125 µg/mL	> 125 µg/mL	> 50 µg/mL	
C[C@@H]1O[C@@H](O[C@H]2[C@H](Oc3cc(=O)n(C)c4ccccc34)O[C@H](CO)[C@@H](O)[C@@H]2O)[C@H](O)[C@H](O)[C@H]1O [KATIMBORINE]	> 100 µg/mL	> 125 µg/mL	> 125 µg/mL	> 50 µg/mL	
CC1(C)C=Cc2c(ccc(CCC(=O)O)c2O[C@@H]2O[C@H](CO[C@@H]3O[C@H](CO)[C@@H](O)[C@H](O)[C@H]3O)[C@@H](O)[C@H](O)[C@H]2O)O1 [OMUBIOSIDE]	> 100 µg/mL	> 125 µg/mL	> 125 µg/mL	> 50 µg/mL	
N=C(N)c1ccc(OCCCCCOc2ccc(C(=N)N)cc2)cc1 [PENTAMIDINE]		3.1 µg/mL (≈ 9.11 µM)	1.4 µg/mL (≈ 4.11 µM)		
CC1(C)C=Cc2c(ccc3ccc(=O)oc23)O1 [SESALIN]	> 100 µg/mL	> 125 µg/mL	> 125 µg/mL	> 50 µg/mL	
COc1cc2oc(=O)ccc2cc1CC=C(C)C [SUBEROSIN]	> 100 µg/mL	> 125 µg/mL	> 125 µg/mL	> 50 µg/mL	
C[n+]1cccc(C(=O)[O-])c1.Cl [TRIGONELLINE HYDROCHLORIDE]	> 100 µg/mL	> 125 µg/mL	> 125 µg/mL	> 50 µg/mL	

Source: ChEMBL document CHEMBL1926619, “Structure and in vitro antiparasitic activity of constituents of Citropsis articulata root bark” (J Nat Prod, 2011)
